{"source": "patent US10369123B2", "about": "“Perk activator for the treatment of neurodegenerative diseases” (DEUTSCHES ZENTRUM FÜR NEURODEGENERATIVE ERKRANKUNGEN E.V. …, priority 2014, dated 2019)", "tested_on": "P301S tau transgenic mice", "assay": "Morris water maze", "format": "in vivo, mouse", "conditions": "2 mg/kg i.p. once daily, tested at 15 weeks of age", "experimental": "All animal work was conducted either on CR57BL/6 mice, obtained from Charles River Laboratories, Wilmington, Mass., USA, or on homozygous transgenic mice overexpressing human tau with the P301S mutation on a C57BL/6 background, originally developed by Michel Goedert (Xu et al. 2014), obtained by own breeding. Animals were kept at 23±1° C. under standard 12 h light-dark cycle with free access to food and water. They were handled according to the EU Council Directive 2010/63/EU, the Guide for the Care and Use of Laboratory Animals (National Research Council 2011) and the guidelines of the local institutional committee. The experiments were authorized by the local authority “Regierung von Oberbayern” under application number 55.2-1-54-2532-165-13. […]\nFor the efficacy trial in the early disease stage (Xu et al. 2014), P301S mice (n=8 per group) and wild type littermates (n=9 per group) received once daily i.p. injections of 2 mg/kg CCT020312 or equivalent volumes of saline from 9 to 14 weeks of age; they were analyzed with the Morris Water Maze in the 15th week of age.\nTo analyze spatial learning and memory, the Morris water maze test was performed at 15 weeks of age (n=8 per group) in a cylindrical water basin (diameter 120 cm) filled with water with a depth of 31 cm. […] Tracks of training and probe trial were recorded with the computerized Viewer2 system (Biobserve, Mannheim, Germany).", "note": "“Also recorded” adds a separate entry of the source."}
{"smiles": "CCN(CC)CCC(=O)N1N=C(c2c(-c3ccccc3)c3cc(Br)ccc3[nH]c2=O)CC1c1ccc(Br)cc1", "note": "(centres unmarked) [CCT020312, 6-bromo-3-[5-(4-bromo-phenyl)-1-(3-diethylamino-propionyl)-4,5-dihydro-1H-pyrazol-3-yl]-4-phenyl-1H-quinolin-2-one]", "values": [{"measurement": "latency to find the hidden platform / learning curve", "setting": "P301S tau mice, vs saline", "value": "significantly improved; also recorded: steeper learning curve"}, {"measurement": "latency to find the hidden platform / learning curve", "setting": "wild type mice", "value": "did not significantly affect; also recorded: did not change the learning curve"}]}
